Source: PMC11504268 (Antibiotics, 2024)
Where two headings read alike, the source gives them in different places.

What was measured:
[1] = Method: The estimation of parameters, including fixed and random effects, was conducted using first-order conditional estimation with the interaction method. This enables modelling of the interaction between the IIV in PK parameters and the residual variability (RV) in measured concentrations. […] Each model adhered to first-order kinetics, except the zero-order infusion processes. Each PK parameter in the model was described by the equation θi = θ × exp (ηi), where θ denotes the typical value of the PK parameter, θi is the individual PK parameter value for each participant, and ηi is a random variable encapsulating IIV. We hypothesised that IIV is normally distributed, with a mean of zero and variance ω^2. RV was modelled as normally distributed with a mean of zero and a variance σ^2. Additionally, we evaluated additive, proportional, and combined additive-proportional error models. The methods used to select and validate models encompassed several criteria: variations in NONMEM objective function values (OFVs), the accuracy of parameter estimates as reflected by relative standard errors, goodness-of-fit plots, VPC, and bootstrap evaluations. […] Model validation processes included the creation of conditional weighted residual plots versus time and against population predictions (PRED), in addition to comparisons between observed data and both PRED and individual predictions. […] The variability in the final model predictions was analysed using the median and 95% confidence intervals from 2000 bootstrap replicates. We identified significant covariates influencing pharmacokinetic (PK) parameters through a process of stepwise forward selection and backward elimination, with inclusion thresholds of p < 0.01 (ΔOFV < −6.635) and exclusion thresholds of p < 0.001 (ΔOFV > 10.83) for single degree-of-freedom tests. Covariates were assessed for both their statistical and clinical relevance, taking into account demographic factors (such as gender, age, weight, height, body mass index, and body surface area) and biochemical markers (including serum protein, albumin, creatinine, and cystatin C levels). […] We utilised Perl-speaks-NONMEM (PSN, version 5.3.1, [https://uupharmacometrics.github.io/PsN], accessed on 13 April 2023) for covariate identification, VPC execution, and nonparametric bootstrapping to evaluate model robustness. Data analysis and graphical outputs were conducted using the R programming environment (version 4.4.0, [www.rproject.org], Vienna, Austria, accessed on 6 June 2024).
[2] = cited from earlier work; for average AUC: critically ill patients, daily dose 30 mg/kg
Remark: listed apart in the source
[3] = final model, 2000 bootstrap replicates
[4] = final model, Q = θ5 × (WT/69.45)^θ6
[5] = final model, V2 = θ7 × (BSA/1.80)^θ8
[6] = healthy adults n = 12, 1 g i.v. over 2 h, plasma, NCA, mean (CV%)
[7] = healthy adults n = 12, 1 g i.v. over 2 h, plasma, NCA, median (IQR)

For `C[C@@H](O)[C@H]1C(=O)N2C(C(=O)O)=C(S[C@@H]3CN[C@H](C(=O)N(C)C)C3)[C@H](C)[C@H]12` [meropenem], which “V1, Estimates” value ([1]; in vivo) is on record?
Its value is 15.1 L.

And the “V2, Estimates” value ([1]; in vivo)?
Its value is 26.2 L.

Which “clearance rate per kg” value ([1]; final model typical CL 8.83 L/h expressed per kg, healthy adults with normal renal function) does the source give for `CN[C@H](CC(C)C)C(=O)N[C@H]1C(=O)N[C@@H](CC(N)=O)C(=O)N[C@H]2C(=O)N[C@H]3C(=O)N[C@H](C(=O)N[C@H](C(=O)O)c4cc(O)cc(O)c4-c4cc3ccc4O)[C@H](O)c3ccc(c(Cl)c3)Oc3cc2cc(c3O[C@@H]2O[C@H](CO)[C@@H](O)[C@H](O)[C@H]2O[C@H]2C[C@](C)(N)[C@H](O)[C@H](C)O2)Oc2ccc(cc2Cl)[C@H]1O` [vancomycin] here?
The value was 0.127 L/h/kg.

And the “θ1, typical total clearance CL, Bootstrap Median (95% CI)” value [1, 3]?
Its value is 8.78 (8.14–9.6) L/h.

And the “θ4, central volume of distribution V1, Bootstrap Median (95% CI)” value [1, 3]?
The value was 12.8 (3.94–19.6) L.

What about the “θ5, intercompartmental clearance Q, Bootstrap Median (95% CI)” value [1, 3] of the same compound?
Its value is 20.4 (16.8–28.2) L/h.

And the “θ6, exponent of weight on Q, Bootstrap Median (95% CI)” value [1, 3]?
Its value is 2.31 (1.36–3.35).

And the “θ7, peripheral volume of distribution V2, Bootstrap Median (95% CI)” value [1, 3]?
The value was 27.8 (25.0–31.0) L.

What about the “θ8, exponent of BSA on V2, Bootstrap Median (95% CI)” value [1, 3] of the same compound?
The value was 3.13 (1.79–3.73).

What about the “θ1, typical total clearance CL, Estimates” value ([1]; final model, CL = θ1 × (WT/69.45)^θ2 × (AGE/38.5)^θ3, 12 healthy adults) of the same compound?
The value was 8.83 L/h.

And the “θ5, intercompartmental clearance Q, Estimates” value [1, 4]?
Its value is 20.2 L/h.

And the “θ6, exponent of weight on Q, Estimates” value [1, 4]?
Its value is 2.38.

What about the “θ4, central volume of distribution V1, Estimates” value ([1]; final model, V1 = θ4) of the same compound?
Its value is 12.9 L.

What about the “θ7, peripheral volume of distribution V2, Estimates” value [1, 5] of the same compound?
Its value is 27.4 L.

What about the “θ8, exponent of BSA on V2, Estimates” value [1, 5] of the same compound?
Its value is 3.09.

And the “VC, Mean (CV%)” value ([1]; individual parameters from population PK, central volume of distribution, n = 12, mean (CV%))?
Its value is 0.211 (48.0) L/kg.

And the “VC, Median (IQR)” value ([1]; individual parameters from population PK, central volume of distribution, n = 12, median (IQR))?
Its value is 0.163 (0.144–0.251) L/kg.

What about the “t1/2α, Mean (CV%)” value ([1]; individual parameters from population PK, distribution phase half-life, n = 12, mean (CV%)) of the same compound?
Its value is 0.270 (42.7) h.

And the “AUCtau, Mean (CV%)” value ([1]; individual parameters from population PK, dose/CL, 1 g, n = 12, mean (CV%))?
The value was 113 (28.9) mg·h/L.

And the “AUCtau, Median (IQR)” value ([1]; individual parameters from population PK, dose/CL, 1 g, n = 12, median (IQR))?
Its value is 111 (81.9–137) mg·h/L.

And the “t1/2β, Mean (CV%)” value ([1]; individual parameters from population PK, elimination phase half-life, n = 12, mean (CV%))?
The value was 3.88 (12.5) h.

And the “Vss, Mean (CV%)” value ([1]; individual parameters from population PK, steady-state volume of distribution, n = 12, mean (CV%))?
Its value is 0.611 (16.5) L/kg.

What about the “Vss, Median (IQR)” value ([1]; individual parameters from population PK, steady-state volume of distribution, n = 12, median (IQR)) of the same compound?
The value was 0.593 (0.565–0.650) L/kg.

What about the “CL, Mean (CV%)” value ([1]; individual parameters from population PK, total clearance, healthy adults n = 12, 1 g i.v. over 2 h, mean (CV%)) of the same compound?
Its value is 0.135 (17.0) L/h/kg.

What about the “CL, Median (IQR)” value ([1]; individual parameters from population PK, total clearance, healthy adults n = 12, median (IQR)) of the same compound?
Its value is 0.131 (0.117–0.144) L/h/kg.

What about the “Q, Estimates” value ([1]; two-compartment base model) of the same compound?
The value was 17.8 L/h.

What about the vancomycin clearance ([2]; ICU patients, CLCR 130 mL/min) of the same compound?
Its vancomycin clearance is 6.20 L/h.

What about the vancomycin clearance ([2]; ICU patients, CLCR 180 mL/min) of the same compound?
The vancomycin clearance was 8.61 L/h.

What about the vancomycin clearance ([2]; critically ill ARC patients, average CLCR 180.8 mL/min) of the same compound?
Its vancomycin clearance is 9.7 L/h.

What about the vancomycin clearance ([2]; critically ill non-ARC patients, average CLCR 103.4 mL/min) of the same compound?
Its vancomycin clearance is 6.5 L/h.

What about the “average AUC” value ([2]; 139 patients with augmented renal clearance (ARC)) of the same compound?
The value was 232.9 mg·h/L.

What about the “average AUC” value ([2]; 141 patients without ARC) of the same compound?
The value was 316.2 mg·h/L.

And the vancomycin clearance ([2]; patients with ARC)?
The vancomycin clearance was 5.55 L/h.

What about the vancomycin clearance ([2]; patients with non-ARC) of the same compound?
The vancomycin clearance was 4.04 L/h.

And the vancomycin clearance ([2]; patients with thermal or inhalation injuries, TBSA burns 10–19%)?
The vancomycin clearance was 8.2 L/h.

What about the vancomycin clearance ([2]; patients with thermal or inhalation injuries, TBSA burns 20–29%) of the same compound?
Its vancomycin clearance is 8.9 L/h.

What about the vancomycin clearance ([2]; patients with thermal or inhalation injuries, TBSA burns < 10%) of the same compound?
Its vancomycin clearance is 6.9 L/h.

And the “Cmax, Mean (CV%)” value (healthy Korean adults n = 12, single 1 g i.v. infusion over 2 h, plasma, LC-MS/MS, NCA, mean (CV%))?
The value was 23.4 (34.4) mg/L.

What about the “Cmax, Median (IQR)” value (healthy Korean adults n = 12, single 1 g i.v. infusion over 2 h, plasma, LC-MS/MS, NCA, median (IQR)) of the same compound?
Its value is 20.8 (17.0–27.1) mg/L.

What about the “AUCinf, Mean (CV%)” value [6] of the same compound?
The value was 106 (30.5) mg·h/L.

And the “AUClast, Mean (CV%)” value [6]?
Its value is 78.7 (28.2) mg·h/L.

And the “AUMCinf, Mean (CV%)” value [6]?
The value was 667 (40.0) mg·h^2/L.

And the “AUMClast, Mean (CV%)” value [6]?
Its value is 289 (26.7) mg·h^2/L.

And the “MRTinf, Mean (CV%)” value [6]?
Its value is 5.12 (18.9) h.

And the “AUCinf, Median (IQR)” value [7]?
Its value is 97.1 (76.1–140) mg·h/L.

What about the “AUClast, Median (IQR)” value [7] of the same compound?
The value was 73.6 (58.5–90.4) mg·h/L.

And the “AUMCinf, Median (IQR)” value [7]?
Its value is 587 (464–807) mg·h^2/L.

What about the “AUMClast, Median (IQR)” value [7] of the same compound?
Its value is 279 (217–341) mg·h^2/L.

What about the “MRTinf, Median (IQR)” value [7] of the same compound?
The value was 4.98 (4.46–5.60) h.

And the “VssNCA, Mean (CV%)” value (steady-state Vd by NCA, healthy adults n = 12, 1 g i.v. over 2 h, mean (CV%))?
The value was 0.730 (15.7) L/kg.

What about the “VssNCA, Median (IQR)” value (steady-state Vd by NCA, healthy adults n = 12, 1 g i.v. over 2 h, median (IQR)) of the same compound?
The value was 0.714 (0.650–0.802) L/kg.

What about the “t1/2λz, Mean (CV%)” value (terminal elimination half-life, NCA, healthy adults n = 12, 1 g i.v. over 2 h, mean (CV%)) of the same compound?
Its value is 3.87 (21.3) h.

And the “t1/2λz, Median (IQR)” value (terminal elimination half-life, NCA, healthy adults n = 12, 1 g i.v. over 2 h, median (IQR))?
The value was 3.58 (3.34–4.25) h.

What about the “CLNCA, Mean (CV%)” value (total body clearance by NCA, healthy adults n = 12, 1 g i.v. over 2 h, mean (CV%)) of the same compound?
The value was 0.146 (19.8) L/h/kg.

And the “CLNCA, Median (IQR)” value (total body clearance by NCA, healthy adults n = 12, 1 g i.v. over 2 h, median (IQR))?
The value was 0.135 (0.128–0.160) L/h/kg.

What about the “VzZNCA, Mean (CV%)” value (volume of distribution by NCA, healthy adults n = 12, 1 g i.v. over 2 h, mean (CV%)) of the same compound?
Its value is 0.793 (15.4) L/kg.

And the “VzZNCA, Median (IQR)” value (volume of distribution by NCA, healthy adults n = 12, 1 g i.v. over 2 h, median (IQR))?
Its value is 0.806 (0.701–0.873) L/kg.
